For assay [1], the target named is Platelet-derived growth factor receptor beta (Mus musculus, UniProt P05622). Description: Ability to prevent phosphorylation of isolated mouse PDGF receptor beta.
The target of assay [2] is Proto-oncogene tyrosine-protein kinase Src (Gallus gallus, UniProt P00523). Nature of the assay: Ability to prevent phosphorylation of avian c-Src TK.
Assay [3] has as its target Fibroblast growth factor receptor 1 (Homo sapiens, UniProt P11362).
Description: Ability to prevent phosphorylation of human fibroblast growth factor receptor 1

The term IC50 denotes the concentration needed to halve the response being measured.

Chain of Platelet-derived growth factor receptor beta (P05622 whole entry): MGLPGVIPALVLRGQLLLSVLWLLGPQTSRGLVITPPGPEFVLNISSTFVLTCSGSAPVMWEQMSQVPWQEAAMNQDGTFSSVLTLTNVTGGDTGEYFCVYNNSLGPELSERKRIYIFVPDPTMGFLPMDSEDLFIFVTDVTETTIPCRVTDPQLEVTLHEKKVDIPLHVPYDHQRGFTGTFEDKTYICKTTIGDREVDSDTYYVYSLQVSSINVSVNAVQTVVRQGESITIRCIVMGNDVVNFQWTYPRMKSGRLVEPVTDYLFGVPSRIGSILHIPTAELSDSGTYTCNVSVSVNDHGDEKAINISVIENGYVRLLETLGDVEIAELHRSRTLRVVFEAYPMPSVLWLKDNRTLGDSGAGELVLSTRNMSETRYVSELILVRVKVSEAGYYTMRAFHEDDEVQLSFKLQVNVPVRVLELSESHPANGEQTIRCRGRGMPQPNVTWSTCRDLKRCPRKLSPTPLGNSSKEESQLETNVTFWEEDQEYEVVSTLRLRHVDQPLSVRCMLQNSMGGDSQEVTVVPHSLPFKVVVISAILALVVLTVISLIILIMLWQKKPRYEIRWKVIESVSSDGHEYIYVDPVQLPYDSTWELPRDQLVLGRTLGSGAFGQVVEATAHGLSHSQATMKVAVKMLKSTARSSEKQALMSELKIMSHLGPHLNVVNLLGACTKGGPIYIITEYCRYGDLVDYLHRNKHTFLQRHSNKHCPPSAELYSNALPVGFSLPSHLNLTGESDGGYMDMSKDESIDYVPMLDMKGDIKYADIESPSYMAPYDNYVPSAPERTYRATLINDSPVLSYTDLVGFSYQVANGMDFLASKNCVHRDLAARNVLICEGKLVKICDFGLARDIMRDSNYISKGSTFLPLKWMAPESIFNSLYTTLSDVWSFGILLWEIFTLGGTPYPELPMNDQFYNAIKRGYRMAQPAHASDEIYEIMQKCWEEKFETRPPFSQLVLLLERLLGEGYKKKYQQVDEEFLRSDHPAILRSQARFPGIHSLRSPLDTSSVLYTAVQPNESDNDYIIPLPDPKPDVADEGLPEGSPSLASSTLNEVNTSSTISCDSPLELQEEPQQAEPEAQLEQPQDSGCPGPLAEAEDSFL
Chain of Fibroblast growth factor receptor 1 (P11362 whole entry): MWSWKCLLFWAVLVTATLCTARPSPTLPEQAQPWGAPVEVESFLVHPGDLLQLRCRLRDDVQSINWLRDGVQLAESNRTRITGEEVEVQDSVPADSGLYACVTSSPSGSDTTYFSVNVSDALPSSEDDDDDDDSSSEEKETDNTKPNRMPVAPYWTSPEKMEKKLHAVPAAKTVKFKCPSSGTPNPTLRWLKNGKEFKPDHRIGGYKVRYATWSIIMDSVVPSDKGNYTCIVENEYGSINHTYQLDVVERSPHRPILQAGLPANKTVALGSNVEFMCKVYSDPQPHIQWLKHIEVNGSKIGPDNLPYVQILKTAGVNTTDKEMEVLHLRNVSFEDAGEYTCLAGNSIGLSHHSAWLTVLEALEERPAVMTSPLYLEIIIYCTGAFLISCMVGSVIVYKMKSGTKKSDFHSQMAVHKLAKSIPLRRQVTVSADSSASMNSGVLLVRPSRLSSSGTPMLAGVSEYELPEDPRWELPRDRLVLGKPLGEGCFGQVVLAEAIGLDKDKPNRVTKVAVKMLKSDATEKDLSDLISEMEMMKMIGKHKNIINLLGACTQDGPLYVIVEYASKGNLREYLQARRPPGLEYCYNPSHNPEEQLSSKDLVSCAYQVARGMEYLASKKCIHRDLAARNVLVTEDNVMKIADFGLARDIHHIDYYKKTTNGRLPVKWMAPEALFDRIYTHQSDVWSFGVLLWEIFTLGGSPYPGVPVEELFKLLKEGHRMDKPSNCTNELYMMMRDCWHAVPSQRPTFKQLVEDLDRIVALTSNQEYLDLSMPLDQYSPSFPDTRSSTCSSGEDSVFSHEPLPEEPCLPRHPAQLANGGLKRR

As for `C=CCNC(=O)Nc1nc2nc(NCCCN3CCN(C)CC3)ncc2cc1-c1c(Cl)cccc1Cl`, the results for the IC50 in assay [1], in assay [2] and in assay [3] were 760 nM, 22 nM and 35 nM, respectively.
Regarding `CCN(CC)CCNc1ncc2cc(-c3c(Cl)cccc3Cl)c(NC(=O)NC(C)(C)C)nc2n1`, the figures for the IC50 in assay [1], in assay [2] and in assay [3] were 9000 nM, 4100 nM and 1800 nM, respectively.
With `COc1ccc(NC(=O)Nc2nc3nc(NCCCN4CCN(C)CC4)ncc3cc2-c2c(Cl)cccc2Cl)cc1`, the IC50 in assay [2] is 33 nM.
As for `CC(C)NC(=Nc1nc2nc(NCCCN3CCN(C)CC3)ncc2cc1-c1c(Cl)cccc1Cl)NC(C)C`, the IC50 came out at 850 nM in assay [2] and 2500 nM in assay [3].
Turning to `CC(C)(C)NC(=O)Nc1nc2nc(NCCCN3CCOCC3)ncc2cc1-c1c(Cl)cccc1Cl`, the IC50 in assay [2] worked out at 100 nM.
As to `CC/N=C(\N)Nc1nc2nc(NCCCN(CC)CC)ncc2cc1-c1c(Cl)cccc1Cl`, the IC50 was greater than 50000 nM in assay [1], 1400 nM in assay [2] and 2700 nM in assay [3].
For `CN1CCN(CCCNc2ncc3cc(-c4c(Cl)cccc4Cl)c(N)nc3n2)CC1`, in that order: 9600 nM, 180 nM and 450 nM.
In the case of `CCNC(=O)Nc1nc2nc(NCCCN(CC)CC)ncc2cc1-c1c(Cl)cccc1Cl`, the figures for the IC50 in assay [1], in assay [2] and in assay [3] were 1300 nM, 94 nM and 130 nM, respectively.
Take `CCCC(=O)Nc1nc2nc(NCCCN3CCN(C)CC3)ncc2cc1-c1c(Cl)cccc1Cl`: the IC50 in assay [1] was greater than 50000 nM; in assay [2], 2700 nM; in assay [3], 3700 nM.
For `CC(C)NC(=O)Nc1nc2nc(NCCCN3CCN(C)CC3)ncc2cc1-c1c(Cl)cccc1Cl`, in that order: 550 nM, 19 nM and 34 nM.
With `CN1CCN(CCCNc2ncc3cc(-c4c(Cl)cccc4Cl)c(NC(=O)Nc4cccc5ccccc45)nc3n2)CC1`, the results for the IC50 in assay [2] and in assay [3] were 130 nM and 300 nM, respectively.
With `CCN(CC)CCCNc1ncc2cc(-c3c(Br)cccc3Br)c(NC(=O)NC(C)(C)C)nc2n1`, the IC50 in assay [1] was 1100 nM; in assay [2] it was 97 nM; in assay [3], 190 nM.
In assay [2], `CCN(CC)CCCNc1ncc2cc(-c3c(Cl)cccc3Cl)c(NC(=O)NC(C)C)nc2n1` returned an IC50 of 78 nM.
In the case of `CCN(CC)CCCNc1ncc2cc(-c3c(Cl)cccc3Cl)c(NC(=O)NC(C)(C)C)nc2n1`, in assay [2], the IC50 is 73 nM.
With `CCN(CC)CCCNc1ncc2cc(-c3c(Cl)cccc3Cl)c(/N=C\N(C)C)nc2n1`, the IC50 is greater than 50000 nM in assay [1], 4000 nM in assay [2] and 10000 nM in assay [3].
The corresponding values for `CCN(CC)C(=O)Nc1nc2nc(NCCCN3CCN(C)CC3)ncc2cc1-c1c(Cl)cccc1Cl` are greater than 50000 nM, greater than 50000 nM and 5500 nM.
The corresponding values for `CCN(CC)CCCNc1ncc2cc(-c3c(Br)cccc3Br)c(N)nc2n1` are greater than 50000 nM, 760 nM and 8300 nM.
For `CN1CCN(CCCNc2ncc3cc(-c4c(Cl)cccc4Cl)c(NC(=O)Nc4ccc(Cl)c(Cl)c4)nc3n2)CC1`, in that order: 5000 nM, 92 nM and 600 nM.
Turning to `COc1cccc(NC(=O)Nc2nc3nc(NCCCN4CCN(C)CC4)ncc3cc2-c2c(Cl)cccc2Cl)c1`, the IC50 in assay [1] was determined as 910 nM; in assay [2] it was 29 nM.
Turning to `CN(C)CCCNc1ncc2cc(-c3c(Cl)cccc3Cl)c(NC(=O)NC(C)(C)C)nc2n1`, half-maximal inhibition in assay [2] (IC50) was put at 120 nM.
With `CC1CCCCN1CCCNc1ncc2cc(-c3c(Cl)cccc3Cl)c(NC(=O)NC(C)(C)C)nc2n1` (configuration not stated), the IC50 in assay [1] came to 730 nM; in assay [2], 16 nM.
For `Nc1ncc2cc(-c3c(Cl)cccc3Cl)c(N)nc2n1`, in that order: 16000 nM and 210 nM.
On to `CN1CCN(CCCNc2ncc3cc(-c4c(Cl)cccc4Cl)c(N=C(N)Nc4ccccc4)nc3n2)CC1`, for which the values for the IC50 in assay [1], in assay [2] and in assay [3] were 37000 nM, 860 nM and 2800 nM, respectively.
For `CN1CCN(CCCNc2ncc3cc(-c4c(Cl)cccc4Cl)c(NS(=O)(=O)c4ccccc4)nc3n2)CC1`, in that order: 6900 nM, 22 nM and 68 nM.
Turning to `CCN(CC)CCCNc1ncc2cc(-c3c(Cl)cccc3Cl)c(NC(=O)CC(C)(C)C)nc2n1`, the IC50 in assay [1] was greater than 50000 nM; in assay [2], 19000 nM; in assay [3], 27000 nM.
With `CCN(CC)CCCNc1ncc2cc(-c3c(C)cccc3C)c(NC(=O)NC(C)(C)C)nc2n1`, the IC50 in assay [2] was found to be 98 nM; in assay [3], 340 nM.
In turn, `Nc1ncc2cc(-c3c(Br)cccc3Br)c(N)nc2n1` yielded an IC50 in assay [2] of 1600 nM.
Same read-out and setting: for `COc1cc(OC)cc(-c2cc3cnc(N)nc3nc2N)c1` the value was greater than 50000 nM.
As to `Cc1cc(C)c(C)c(-c2cc3cnc(N)nc3nc2NC(=O)NC(C)(C)C)c1C`, the IC50 in assay [1] and in assay [2] was greater than 50000 nM in each case.
As for `Cc1cc(C)c(C)c(-c2cc3cnc(N)nc3nc2N)c1C`, the IC50 in assay [1], in assay [2] and in assay [3] was greater than 50000 nM each time.
Take `CN1CCN(CCCNc2ncc3cc(-c4c(Cl)cccc4Cl)c(NC(=O)CC(C)(C)C)nc3n2)CC1`: the IC50 in assay [1] was greater than 50000 nM; in assay [2] it was 8400 nM; in assay [3] it was 8000 nM.
Consider `CN1CCN(CCCNc2ncc3cc(-c4c(Cl)cccc4Cl)c(NC(=O)Nc4ccc(C(F)(F)F)cc4)nc3n2)CC1`, for which the IC50 stood at 5500 nM in assay [1] and 190 nM in assay [2].
Consider `CCN(CC)CCCCNc1ncc2cc(-c3c(Cl)cccc3Cl)c(NC(=O)NC3CCCCC3)nc2n1`, for which the IC50 in assay [1] amounted to 330 nM; in assay [2] it was 12 nM; in assay [3], 43 nM.
Take `CCCCCCCCNC(=O)Nc1nc2nc(NCCCN3CCN(C)CC3)ncc2cc1-c1c(Cl)cccc1Cl`: the IC50 in assay [2] was determined as 120 nM; in assay [3], 420 nM.
Consider `COc1ccccc1NC(=O)Nc1nc2nc(NCCCN3CCN(C)CC3)ncc2cc1-c1c(Cl)cccc1Cl`, for which the IC50 worked out at 660 nM in assay [1], 16 nM in assay [2] and 67 nM in assay [3].
For `CN1CCN(CCCNc2ncc3cc(-c4c(Cl)cccc4Cl)c(NC(N)=O)nc3n2)CC1`, in that order: 2400 nM, 61 nM and 140 nM.
Turning to `CC(C)(C)NC(=O)Nc1nc2nc(N)ncc2cc1-c1c(Cl)cccc1Cl`, the IC50 in assay [1] amounted to 1200 nM; in assay [2], 220 nM.
Consider `CN1CCN(CCCNc2ncc3cc(-c4c(Cl)cccc4Cl)c(/N=C(/S)NC(C)(C)C)nc3n2)CC1`, for which the IC50 in assay [2] turned out to be 220 nM; in assay [3], 100 nM.
For the compound `CCNC(=S)Nc1nc2nc(NCCCN(CC)CC)ncc2cc1-c1c(Cl)cccc1Cl`, the IC50 turned out to be 5000 nM in assay [1], 130 nM in assay [2] and 260 nM in assay [3].
`COc1cc(OC)cc(-c2cc3cnc(N)nc3nc2NC(=O)NC(C)(C)C)c1`: the IC50 in assay [3] stood at 48 nM.
For `CN1CCN(CCCNc2ncc3cc(-c4c(Cl)cccc4Cl)c(NC(=O)Nc4ccc(Br)cc4)nc3n2)CC1`, the values for the IC50 in assay [1], in assay [2] and in assay [3] were 1500 nM, 33 nM and 110 nM, respectively.
For `CCNC(=O)Nc1nc2nc(NCCN(CC)CC)ncc2cc1-c1c(Cl)cccc1Cl`, in that order: 12000 nM, 2600 nM and 1300 nM.
Take `CN1CCN(CCCCNc2ncc3cc(-c4c(Cl)cccc4Cl)c(NC(=O)NC(C)(C)C)nc3n2)CC1`: the half-inhibitory concentration (IC50) in assay [1] is 280 nM; in assay [2], 10 nM.
For `CC(C)(C)NC(=O)Nc1nc2nc(N)ncc2cc1-c1c(Br)cccc1Br`, in that order: 1400 nM and 210 nM.
Take `CN1CCN(CCCNc2ncc3cc(-c4c(Cl)cccc4Cl)c(NC(=O)NCCNC(=O)OC(C)(C)C)nc3n2)CC1`: the figures for the IC50 in assay [1], in assay [2] and in assay [3] were 4200 nM, 150 nM and 67 nM, respectively.
For `CN1CCN(CCCNc2ncc3cc(-c4c(Cl)cccc4Cl)c(NC(=O)NC45C[C@H]6C[C@@H](C4)C[C@@H](C5)C6)nc3n2)CC1`, the IC50 in assay [1] worked out at 2800 nM; in assay [2], 120 nM; in assay [3], 120 nM.
Regarding `Cc1ccc(NC(=O)Nc2nc3nc(NCCCN4CCN(C)CC4)ncc3cc2-c2c(Cl)cccc2Cl)cc1`, the results for the IC50 in assay [1], in assay [2] and in assay [3] were 840 nM, 36 nM and 110 nM, respectively.
Regarding `CN1CCN(CCCNc2ncc3cc(-c4c(Cl)cccc4Cl)c(NC(=O)Nc4ccc(Cl)cc4)nc3n2)CC1`, the IC50 in assay [1] was 1800 nM; in assay [2], 40 nM; in assay [3], 120 nM.
As for `CCN(CC)CCCNc1ncc2cc(-c3c(Cl)cccc3Cl)c(N)nc2n1`, in assay [2], the IC50 was determined as 750 nM.
As for `CN1CCN(CCCNc2ncc3cc(-c4c(Cl)cccc4Cl)c(NC(=S)Nc4ccccc4)nc3n2)CC1`, the IC50 in assay [1] was 2200 nM; in assay [2] it was 22 nM; in assay [3] it was 320 nM.
Regarding `Cc1cccc(C)c1-c1cc2cnc(N)nc2nc1N`, the IC50 amounted to 29000 nM in assay [1], 430 nM in assay [2] and 13000 nM in assay [3].
Take `CCN(CC)CCCNc1ncc2cc(-c3c(C)cccc3C)c(N)nc2n1`: the IC50 in assay [1] worked out at 25000 nM; in assay [2] it was 450 nM; in assay [3] it was 18000 nM.
For `CCN(CC)CCCCNc1ncc2cc(-c3c(Cl)cccc3Cl)c(NC(=S)NCCCN3CCOCC3)nc2n1`, in that order: 1100 nM, 22 nM and 130 nM.
As to `CN(C)CCCN(C)c1ncc2cc(-c3c(Cl)cccc3Cl)c(NC(=O)NC(C)(C)C)nc2n1`, the IC50 is 16000 nM in assay [1], 1100 nM in assay [2] and 2000 nM in assay [3].
For `CN(C)CCNC(=O)Nc1nc2nc(NCCCN3CCN(C)CC3)ncc2cc1-c1c(Cl)cccc1Cl`, in that order: 2400 nM, 20 nM and 75 nM.
The corresponding values for `CN(C)CC(C)(C)CNc1ncc2cc(-c3c(Cl)cccc3Cl)c(NC(=O)NC(C)(C)C)nc2n1` are 3200 nM, 3500 nM and 210 nM.

These data come from ChEMBL document CHEMBL1134497, “Soluble 2-substituted aminopyrido[2,3-d]pyrimidin-7-yl ureas. Structure-activity relationships against selected tyrosine kinases and exploration of in vitro and in vivo anticancer activity” (J Med Chem, 2001).
